Read-outs that look alike come from different tables or passages of the source.
Legend:
plasma 2-HG = assay: Plasma 2-HG pharmacodynamics in patients with IDH1-mutant tumors; type: in vivo, human
Method: (§1) These samples were optional for any further patients enrolled in these cohorts. Further blood samples were collected from all patients up to 10 h postdose on cycle 1, day 15 and cycle 2, day 1. A subset of samples was also used for evaluation of plasma 4β-hydroxycholesterol (4β-OHC) and 4β-OHC:cholesterol ratios. Blood samples for assessment of 2-HG only were also collected at screening.
Additional predose samples were taken on cycle 1, day 8; cycle 1, day 15; cycle 3, day 1; and end of treatment.
(§2) Plasma ivosidenib was measured using two validated liquid chromatography-tandem mass spectrometry (LC-MS/MS) methods. The lower limit of quantification (LLOQ) was 1.00 ng/mL (low-range assay) or 50.0 ng/mL (high-range assay). […] Plasma 2-HG concentrations were measured using a qualified LC-MS/MS method with an LLOQ of 30.0 ng/mL. Concentrations of 2-HG in tumor biopsy samples were quantified using qualified LC-MS/MS methods with an LLOQ of 7.5 μg/g for brain tumor homogenate, 100 ng/g for liver tumor homogenate (low-range assay), and 30 μg/g for liver tumor homogenate (high-range assay). Plasma 4β-OHC and cholesterol were measured using a validated LC-MS/MS method. The LLOQ was 5 ng/mL for 4β-OHC and 25 μg/mL for cholesterol in human plasma.
(§3) PK parameters included area under the plasma concentration-time curve (AUC), maximum plasma concentration (Cmax), time to maximum plasma concentration (Tmax), terminal elimination half-life (t1/2), and apparent oral clearance at steady state (CLss/F). Accumulation ratio (Racc), based on Cmax and AUC, was also assessed during the dose escalation portion. PD (2-HG) parameters included baseline-effect value, area under the effect concentration-time curve (AUEC0-10h for the dose escalation portion, or AUEC0-8h for the dose escalation and expansion portions), percent change from baseline in AUEC (%BAUEC0-10h for the escalation portion, or %BAUEC0-8h for the dose escalation and expansion portions), average plasma concentration (Cavg), and percent inhibition for Cavg (%BCavg). For the dose escalation portion, the time-matched ratios of 4β-OHC to cholesterol were calculated.

[1] = Ivosidenib plasma PK after multiple oral doses (dose escalation); type: in vivo, human; conditions: for Cmax / AUC(0-t) / AUC / Tmax: human, plasma, oral; for Cmax / AUC(0-t) / AUC: geometric mean; for AUC(0-t): read-out: AUC0-10hr; for AUC: read-out: AUC0-tau
Method: In the dose escalation portion, patients with 1) glioma and 2) non-glioma solid tumors were enrolled into sequential cohorts using a standard 3 + 3 design. […] At least 3 patients in each cohort also received a single dose 3 days prior to the start of multiple dosing (i.e., day −3).
as §1, §2, §3

[2] = 100 mg, non-glioma solid tumors, 100 mg BID, cycle 2 day 1
[3] = 300 mg, glioma, 300 mg QD, cycle 2 day 1
[4] = 300 mg, non-glioma solid tumors, 300 mg QD, cycle 2 day 1
[5] = 400 mg, non-glioma solid tumors, 400 mg QD, cycle 2 day 1
[6] = 500 mg, glioma, 500 mg QD, cycle 2 day 1
[7] = 500 mg, non-glioma solid tumors, 500 mg QD, cycle 2 day 1
[8] = 600 mg, glioma, 600 mg QD, cycle 2 day 1
[9] = 800 mg, non-glioma solid tumors, 800 mg QD, cycle 2 day 1
[10] = 900 mg, glioma, 900 mg QD, cycle 2 day 1
[11] = 1200 mg, non-glioma solid tumors, 1,200 mg QD, cycle 2 day 1

For `N#Cc1ccnc(N2C(=O)CC[C@H]2C(=O)N(c2cncc(F)c2)[C@H](C(=O)NC2CC(F)(F)C2)c2ccccc2Cl)c1` [ivosidenib], the “plasma 2-HG mean Cavg percent inhibition (BCavg%)” value (plasma 2-HG; cholangiocarcinoma, 500 mg multiple dose, cycle 2 day 1) was 80%, the “plasma 2-HG mean Cavg percent inhibition (BCavg%)” value (plasma 2-HG; cholangiocarcinoma, single dose, 500 mg) was 46% and the “plasma 2-HG mean Cavg percent inhibition (BCavg%)” value (plasma 2-HG; chondrosarcoma, 500 mg multiple dose, cycle 1 day 15) was 54%. For the same compound, the “plasma 2-HG mean Cavg percent inhibition (BCavg%)” value (plasma 2-HG; chondrosarcoma, 500 mg multiple dose, cycle 2 day 1) was 59%, the “plasma 2-HG mean Cavg percent inhibition (BCavg%)” value (plasma 2-HG; chondrosarcoma, single dose, 500 mg) was 30% and the “accumulation at steady state” value ([1]; day 15) was “approximately 1.5 fold”. The Cmax [1, 2] was 3560 ng/mL, the AUC(0-t) [1, 2] was 28600 ng·h/mL and the AUC [1, 2] was 33600 ng·h/mL. For the same compound, the Tmax ([1]; 100 mg, non-glioma solid tumors, 100 mg BID, cycle 2 day 1, median, read-out: Tmax) was 2.5 h, the Cmax [1, 3] was 3290 ng/mL and the AUC(0-t) [1, 3] was 23700 ng·h/mL. It also gave an AUC [1, 3] of 50800 ng·h/mL, a Tmax ([1]; 300 mg, glioma, 300 mg QD, cycle 2 day 1, median, read-out: Tmax) of 2.54 h and a Cmax [1, 4] of 3160 ng/mL. The AUC(0-t) [1, 4] was 23400 ng·h/mL, the AUC [1, 4] was 53200 ng·h/mL and the Tmax ([1]; 300 mg, non-glioma solid tumors, 300 mg QD, cycle 2 day 1, median, read-out: Tmax) was 2.05 h. It also gave a Cmax [1, 5] of 6800 ng/mL, an AUC(0-t) [1, 5] of 51600 ng·h/mL and a Tmax ([1]; 400 mg, non-glioma solid tumors, 400 mg QD, cycle 2 day 1, median, read-out: Tmax) of 3.03 h. It also gave a Cmax [1, 6] of 2900 ng/mL, an AUC(0-t) [1, 6] of 20500 ng·h/mL and an AUC [1, 6] of 44400 ng·h/mL. For the same compound, the Tmax ([1]; 500 mg, glioma, 500 mg QD, cycle 2 day 1, median, read-out: Tmax) was 2 h, the Cmax [1, 7] was 4420 ng/mL and the AUC(0-t) [1, 7] was 33900 ng·h/mL. The AUC [1, 7] was 72800 ng·h/mL, the Tmax ([1]; 500 mg, non-glioma solid tumors, 500 mg QD, cycle 2 day 1, median, read-out: Tmax) was 2.96 h and the Cmax [1, 8] was 3800 ng/mL. It also gave an AUC(0-t) [1, 8] of 29100 ng·h/mL, an AUC [1, 8] of 59800 ng·h/mL and a Tmax ([1]; 600 mg, glioma, 600 mg QD, cycle 2 day 1, median, read-out: Tmax) of 2 h. It also gave a Cmax [1, 9] of 6050 ng/mL, an AUC(0-t) [1, 9] of 44500 ng·h/mL and a Tmax ([1]; 800 mg, non-glioma solid tumors, 800 mg QD, cycle 2 day 1, median, read-out: Tmax) of 2 h. The Cmax [1, 10] was 4100 ng/mL, the AUC(0-t) [1, 10] was 31100 ng·h/mL and the AUC [1, 10] was 64500 ng·h/mL. It also gave a Tmax ([1]; 900 mg, glioma, 900 mg QD, cycle 2 day 1, median, read-out: Tmax) of 2.52 h, a Cmax [1, 11] of 7580 ng/mL and an AUC(0-t) [1, 11] of 57700 ng·h/mL. For the same compound, the AUC [1, 11] was 120000 ng·h/mL, the Tmax ([1]; 1200 mg, non-glioma solid tumors, 1,200 mg QD, cycle 2 day 1, median, read-out: Tmax) was 2.92 h and the Tmax ([1]; after multiple doses, glioma and non-glioma solid tumors, read-out: median Tmax) was 2 to 3 h. The “steady state reached by” value ([1]; multiple dosing, cycle 1) was at most 15 days and the “steady state for ivosidenib plasma exposure and plasma 2-HG inhibition reached within” value ([1]; of cycle 1) was at most 14 days.
